{"source": "patent US20140296567A1", "about": "“3-HYDROXYANTHRANILIC ACID (3-HAA) THERAPY FOR PREVENTION AND TREATMENT OF HYPERLIPIDEMIA AND ITS CARDIOVASULAR COMPLICATIONS” (priority 2011, published 2014)", "key": {"LdIr−/− mice [1]": {"tested_on": "LdIr−/− mice", "test": "Lipoprotein profiles of plasma (size fractionation, cholesterol per fraction)", "format": "in vivo", "conditions": "3-HAA 200 mg/kg i.p., 8 weeks", "procedure": "(§1) LdIr−/− mice were bred and housed in the Animal Experimentation Unit at the Center for Molecular Medicine, Karolinska University Hospital. The mice (n=7-10 per group) received 3 intra-peritoneal injections of PBS (200 μl) or 3-HAA (200 mg/Kg in PBS) per week for 6 weeks and 1 injection per week in the following two weeks (total 24 injections) and were sacrificed with CO2. The mice were fed a high-fat diet (corn starch, cocoa butter, casein, glucose, sucrose, cellulose flour, minerals and vitamins; 17.2% protein, 21% fat (62.9% saturated, 33.9 unsaturated and 3.4% polyunsaturated), 0.15% cholesterol, 43% carbohydrates, 10% H2O and 3.9% cellulose fibers; R638 Lantmännen, Sweden) starting 2 days after the start of treatment.\nPlasma cholesterol lipoprotein profiles were determined using a modification of the method of Okazaki et al^34. Briefly, plasma samples (50 μl) from mice treated with 3-HAA or PBS were fractionated using an HR10/30 Superose 6 column (GE Healthcare, Uppsala, Sweden) and a Discovery BIO GFC-500 as pre-column (5 cm×7.8 i.d.; Supelco®, Sigma-Aldrich, PA, USA) coupled to Prominence UFLC system (Shimadzu, Kyoto, Japan) and equilibrated with Tris-buffered saline, pH 7.4. Fractions of 200 μl were collected using Foxy Jr® fraction collector (Teledyne Isco Inc, NE, USA) and total cholesterol was determined in each fraction using enzymatic colorimetric kit (Randox Lab. Ltd. Crumin, UK)."}, "LdIr−/− mice [2]": {"tested_on": "LdIr−/− mice", "test": "Plasma lipid analysis (total cholesterol, triglycerides; enzymatic colorimetric kits)", "format": "in vivo", "conditions": "3-HAA 200 mg/kg i.p., 8 weeks, high-fat diet, vs PBS; P<0.01", "procedure": "It was hypothesized that induction of protective immunity, with effects on metabolism and inflammation, could be achieved by injecting 3-HAA (200 mg/kg) intraperitoneally, 3 times per week, for 8 weeks. Twelve weeks old LdIr−/− mice were treated with 3-HAA, or PBS as control. The mice were fed a high-fat diet starting 2 days after the first injection until sacrifice, 8 weeks later with CO2.\nPlasma cholesterol and triglycerides were measured using enzymatic colorimetric kits according to the manufacturer's protocol. Dissected aortic arches were stained with Sudan IV en face and % lesion area of total vessel area was calculated. Additionally, the effect of 3-HAA on the uptake oxLDL was evaluated in cultures of peritoneal macrophages from 3-HAA or PBS treated mice.\n(§2) LdIr−/− mice were bred and housed in the Animal Experimentation Unit at the Center for Molecular Medicine, Karolinska University Hospital. The mice (n=7-10 per group) received 3 intra-peritoneal injections of PBS (200 μl) or 3-HAA (200 mg/Kg in PBS) per week for 6 weeks and 1 injection per week in the following two weeks (total 24 injections) and were sacrificed with CO2. […]\nPlasma cholesterol and triglycerides were measured using enzymatic colorimetric kits (Randox Lab. Ltd. Crumin, UK) according to the manufacturer's protocol."}, "[3]": {"tested_on": "peritoneal macrophages from LdIr−/− mice", "test": "OxLDL uptake by peritoneal macrophages (FITC-oxLDL, flow cytometry)", "format": "cell-based", "conditions": "macrophages from mice treated with 3-HAA 200 mg/Kg i.p. for 8 weeks vs PBS; 20 μg/ml FITC-oxLDL, 2 h, 37° C.; P<0.01", "procedure": "Peritoneal macrophages from LdIr−/− mice injected with 3-HAA (200 mg/Kg) or PBS (8 weeks treatment) were incubated with FITC-oxLDL at a concentration of 20 μg protein/ml for 2 h at 37° C. The uptake was quantified by flow cytometry. (A) Values given are MFI of FITC-oxLDL, means±SE of triplicate wells for each mouse (n=5 and 6, for 3-HAA or PBS respectively).\nLDL was labeled using a modification of a previously described method^32. Briefly, LDL (1.5-2 mg/ml) was dialyzed overnight against 500 mM NaHCO3 pH 9.5. Next, 50 μg of FITC (Sigma-Aldrich, St. Louis, Mo., USA), dissolved in DMSO (1 mg/ml), was added for each mg of protein in LDL, and incubated at room temperature for 2 hours. After incubation conjugates were separated from the free fluorochrome by gel filtration using a PD10 column (GE Healthcare, Uppsala, Sweden) and PBS for elution. FITC conjugation was evaluated by absorption spectroscopy against a FITC standard curve at 495 nm. Protein concentration was determined by Bradford assay (Biorad, Calif., USA). […] The extent of oxidation was evaluated by the TBARS assay, as described^33.\nTwenty four hours after the last injection of 3-HAA or PBS, peritoneal macrophages were isolated from LdIr−/− mice by peritoneal lavage with PBS. […] The cells were analyzed on a CyAn™ ADP flow cytometer (Dako, Glostrup, Denmark)."}, "LdIr−/− mice [4]": {"tested_on": "LdIr−/− mice", "test": "Lesion analysis, en face Sudan IV staining of the aortic arch", "format": "in vivo", "conditions": "3-HAA 200 mg/kg i.p., 8 weeks on high fat diet, vs PBS; P<0.001", "procedure": "Twelve weeks old LdIr−/− mice were treated with 3-HAA or PBS as control. The mice were sacrificed after 8 weeks on a Western diet. Dissected arches were stained with Sudan IV en face and % lesion area of total vessel area was calculated using Image J image analysis software (NIH, Bethesda, Md.). The additive area of all the plaques in a given aortic arch was calculated as a percent of the total surface area of the arch. (n=7 and 10, for 3-HAA or PBS respectively). ***) P<0.001.\nas §2\nEn face lipid accumulation was determined in the aortic arch from 3-HAA and PBS treated mice using Sudan IV staining. […] The additive area of all the plaques in a given aortic arch was calculated as a percent of the total surface area of the arch (not including branching vessels). Quantitation of plaques was performed using Image J software (NIH, Bethesda, USA)."}, "[5]": {"test": "Body weight of treated mice", "format": "in vivo", "conditions": "3-HAA 200 mg/kg i.p., 8 weeks; data not shown", "procedure": "as §1"}}}
{"smiles": "Nc1c(O)cccc1C(=O)O", "note": "[3-HAA, 2-Amino-3-hydroxybenzoic acid]", "values": [{"measurement": "HDL levels", "setting": "LdIr−/− mice [1]; high-fat diet, vs PBS", "result": "effectively raised HDL levels"}, {"measurement": "LDL/HDL ratio", "setting": "LdIr−/− mice [1]; mean±SEM, PBS group 2.3±0.24, P<0.05", "result": "1.4±0.16"}, {"measurement": "VLDL/HDL ratio", "setting": "LdIr−/− mice [1]; mean±SEM, PBS group 4.0±0.55, P<0.01", "result": "1.4±0.31"}, {"measurement": "reduction in plasma total cholesterol", "setting": "LdIr−/− mice [2]", "result": "approx 50%"}, {"measurement": "reduction in plasma triglycerides", "setting": "LdIr−/− mice [2]", "result": "approx 72%"}, {"measurement": "reduced uptake of FITC-oxLDL", "setting": "[3]", "result": "approx 79%"}, {"measurement": "reduction in atherosclerotic lesion area in en face preparations of the aortic arch", "setting": "LdIr−/− mice [4]", "result": "approximately 90%"}, {"measurement": "effect on body weight", "setting": "[5]", "result": "no effect on body weight"}]}
